Experiment [1] deals with HSV-1. Description: Virucidal activity, RT-PCR assay (HSV-1 pretreated with compounds). The format is cell-based, HSV-1 strain L2. To be noted: for Ct: 72 h; for −ΔCt: vs virus control; for activity at 0.1 µg/mL / activity at 1 µg/mL / activity at 10 µg/mL / log reduction at 0.1 µg/mL / log reduction at 1 µg/mL / log reduction at 10 µg/mL: Human alphaherpesvirus 1, 72 h; for activity at 0.1 µg/mL / activity at 1 µg/mL / activity at 10 µg/mL: read-out: 2^−ΔCt; for log reduction at 0.1 µg/mL / log reduction at 1 µg/mL / log reduction at 10 µg/mL: read-out: log10; for virucidal activity against HSV-1 by RT-PCR (in words): 0.1, 1 and 10 µg/mL. As to the method: Vero cells grown on 96-well plates were infected with the virus (100 TCID50/mL), pretreated with polyphenolic compounds at concentrations 0.1, 1 and 10 μg/mL. After 72 h of cell incubation, viral DNA was extracted from the supernatants, and the relative level of HSV-1 DNA was determined using RT-PCR. The effect of polyphenols on the relative level of viral DNA was assessed using the 2^−∆Ct method and reported as fold reduction compared to virus control.
(§1) The HSV-1 strain L2 obtained from N.F. Gamaleya Federal Research Centre for Epidemiology and Microbiology (Moscow, Russia) was grown in Vero cells as previously described.
(§2) We determined the direct inhibitory effect of polyphenolic compounds from M. amurensis heartwood on HSV-1 (virucidal effect). We mixed the virus at an infectious dose (100 TCID50/mL) with polyphenolic compounds (from 0.1 to 100 µg/mL) at a ratio of 1:1 (v/v) and incubated for an hour at 37 °C. Then, we infected the monolayer of Vero cells grown on 96-well plates (1 × 10^4 cells/well) with HSV-1 pretreated with the studied compounds. After 1 h adsorption at 37 °C, the cells were washed with phosphate-buffered saline (PBS) and overlaid by the maintenance medium with 1% FBS. The plates were incubated for 72 h at 37 °C in a CO2-incubator. The cytopathic effect (CPE) inhibition assay and real-time reverse transcription-PCR (RT-PCR) assay were used to evaluate virucidal effect of the tested compounds.
We performed the RT-PCR assay as we previously described in detail in [22]. Briefly, HSV-1 DNA was extracted after incubation from cell supernatants by using the DNA-sorb-AM (K1-12-100-CE) nucleic acid extraction kit (AmpliSens®, Moscow, Russia) according to the manufacturer′s instructions. We treated the supernatants with a lysis solution that contained guanidine chloride (chaotropic agent) in the presence of sorbent (silica particles). As the elution solution was added, the DNA was […] silica particles and separated from the sorbent particles by centrifugation.
We detected the DNA of HSV-1 in the obtained samples using the AmpliSens® HSV I, II-FRT-100F PCR kit (AmpliSens®, Moscow, Russia) on a real-time PCR instrument Rotor-Gene Q (Qiagen, Hilden, Nordrhein-Westfalen, Germany) according to the manufacturer′s instructions. The PCR reaction conditions were the following: initial denaturation at 95 °C for 15 min; then 5 cycles at 95 °C for 5 s, at 60 °C for 20 s, at 72 °C for 15 s; then 40 cycles at 95 °C for 5 s, at 60 °C for 20 s, and at 72 °C for 15 s. A negative sample was used as the amplification control for each run. The threshold cycle number Ct, was measured as the PCR cycle, where the amount of the amplified target reached the threshold value; the Ct values ≥ 37 indicated the absence of the HSV-1 DNA in the samples. We assessed the anti-HSV-1 activity of the studied compounds by the reduction in the viral DNA levels using the 2^−ΔCt method according to Equation (2):(2) ΔCt=Ctcv−Cttv where Ct is the threshold cycle number measured as the PCR cycle, where the amount of the amplified target reached the threshold value, […]

For experiment [2], the system named is 6-OHDA-treated Neuro-2a cells. Description: Mitochondrial membrane potential detection (TMRM) in 6-OHDA-treated cells. The class given is cell-based, murine. The protocol: We determined the effect of polyphenolic compounds from M. amurensis on 6-OHDA-induced mitochondrial dysfunction in Neuro-2a cells (Figure 6a,b).
Figure 6 The effect of polyphenolic compounds isolated from M. amurensis heartwood on mitochondrial membrane potential in Neuro-2a cells treated with 6-OHDA (120 μM) (a,b). Polyphenolic compounds isolated from M. amurensis heartwood were used at concentrations 10, 1, 0.1 μM. The data are presented as means ± SEM of three independent replicates. (*) and (***) indicate, respectively, p < 0.05 and p < 0.001 versus 6-OHDA-treated cells.
The cells were incubated for 1 h in a 96-well plate (1 × 10^4 cells/well) with polyphenolic compounds (0.1, 1 and 10 µM). Then, 6-OHDA (120 µM) was added, and cell suspension was incubated for 1 h. Cells incubated without 6-OHDA and compounds and with 6-OHDA alone were used as positive and negative control, respectively. The tetramethylrhodamine methyl (TMRM) (Sigma-Aldrich, St. Louis, MO, USA) solution (500 nM) was added to each well and cells were incubated for 30 min at 37 °C. The intensity of fluorescence was measured using a PHERAstar FSplate reader (BMG Labtech, Ortenberg, Germany) at λex = 540 nm and λem = 590 nm. The data were processed by MARS Data Analysis v. 3.01R2 (BMG Labtech, Ortenberg, Germany).

Experiment [3] has as its system HSV-1. Description: Virucidal activity, CPE inhibition assay (HSV-1 pretreated with compounds). The class given is cell-based, HSV-1 strain L2. To be noted: for IC50: Human alphaherpesvirus 1, virus pretreated with compound (virucidal), Vero cells, 100 TCID50/mL; for IC50 / virucidal activity against HSV-1 (in words): CPE assay; for virucidal activity against HSV-1 (in words): virus pretreated with compound. As to the method: The antiviral activity of polyphenols from M. amurensis against HSV-1 was assessed using the cytopathic effect inhibition (CPE) assay. To study the inhibitory effect of polyphenolic compounds directly on the HSV-1 virus (direct virucidal activity), the monolayer of Vero cells grown on 96-well plates (1 × 10^4 cells/well) was infected with the virus (100 TCD50/mL), pretreated with different concentrations of polyphenolic compounds.
as §1, §2
We previously described this method in detail in [22]. We performed the MTT assay to evaluate the antiviral activity of polyphenolic compounds. The viral inhibition rate (IR, %) was calculated according to Equation (1):(1) IR, %=Atv−Acv/Acd−Acv×100, where Atv is the absorbance of cells infected with HSV-1 pretreated with the studied compounds,
We calculated the selectivity index (SI) as the ratio of CC50 to IC50. Experiments were repeated three times.

In experiment [4] the test system is 6-OHDA-treated Neuro-2a cells. Description: 6-OHDA-induced neurotoxicity model, cell viability test (MTT). To be noted: 6-OHDA 100 µM. The format is cell-based, murine. The protocol:
Neuro-2a cells were incubated with the studied polyphenolic compounds for 1 h. Then, 100 µM of 6-hydroxydopamine 6-OHDA were added. We determined the percentage of living Neuro-2a cells after treatment with 6-OHDA (Figure 4a–d).
Figure 4 The effect of polyphenolic compounds isolated from M. amurensis heartwood on the viability of Neuro-2a cells treated with 6-OHDA (100 μM) (a–d). The viability of Neuro-2a cells treated with various compounds and 6-OHDA was measured by the MTT assay. Polyphenolic compounds isolated from M. amurensis heartwood were used at concentrations 10, 1, 0.1 μM. The data are presented as means ± SEM of three independent replicates. (*) indicate p < 0.05 versus 6-OHDA-treated cells.
After 24 h of adhesion, Neuro-2a cells (5 × 10^4 cells/mL) were treated with polyphenolic compounds at concentrations of 0.1, 1 and 10 μM for 1 h. Then, 100 µM of 6-OHDA or 1 mM of PQ (Sigma-Aldrich, St. Louis, MO, USA) were added. Cells incubated without inductors or with inductors were used as positive and negative control, respectively. Cell viability was measured after 24 h using the MTT assay.

Experiment [5] has as its system 6-OHDA-treated Neuro-2a cells. In words: Apoptosis profile by flow cytometry (Annexin V & Dead Cell Kit). To be noted: Table 1; polyphenols 10 µM, 6-OHDA 100 µM, 24 h; mean. The class given is cell-based, murine. The protocol: We investigated the effect of polyphenolic compounds from M. amurensis on apoptosis profile in 6-OHDA-treated Neuro-2a cells by flow cytometry using fluorescent annexin V conjugate as a fluorescent dye. We observed significant changes in apoptosis profile in Neuro-2a cells after 6-OHDA-treatment. […] Polyphenols 3, 6 and 13 diminished the neurotoxic effect of 6-OHDA-treatment.
The cells were incubated for 1 h in a 6-well plate (5 × 10^4 cells/mL) with polyphenolic compounds (10 µM). Then, 6-OHDA (100 µM) was added, and cell suspension was incubated for 24 h. After incubation, the maintenance media was collected, and the cells were washed by cold PBS twice and incubated with trypsin-EDTA solution. The cell suspension was washed with cold PBS twice again, centrifugated and then used for apoptosis detection by Muse® Annexin V & Dead Cell Kit in accordance with the manufacturer’s instructions (Luminex, Austin, TX, USA). The fluorescence was measured with Muse® Cell Analyzer (Luminex, Austin, TX, USA) and the data were processed by Muse 1.5 Analysis software (Luminex, Austin, TX, USA).
A general note: In flow cytometry, cells or beads pass a laser one at a time.

Each structure is given as a SMILES string. Where “and” joins values, the source holds several entries; their conditions need not be identical. Identical values can stand only once.

On to `Oc1cc(O)cc(/C=C/c2ccc(O)c(O)c2)c1` [Compound 11, piceatannol], for which, in the experiment on HSV-1 [1] (0.1 µg/mL), the Ct amounted to 18.4 ± 2.4 and the “−ΔCt” value was −0.30 ± 0.03. Moreover, in the experiment on HSV-1 [1] (1 µg/mL), the “inhibition of HSV-1 replication by RT-PCR (in words)” value was “inhibited the replication of HSV-1”, the Ct was 24.5 ± 3.4 and the “−ΔCt” value was −6.4 ± 0.8. Besides, in the experiment with HSV-1 [1] (10 µg/mL), the “anti-HSV-1 activity by RT-PCR (in words)” value is “significantly reduced the level of viral DNA”, the Ct came to 30.2 ± 3.9 and the “−ΔCt” value is listed as −12.1 ± 1.4. Further, in the experiment on HSV-1 [1], the activity at 0.1 µg/mL was 81.2 ± 11%, the activity at 1 µg/mL turned out to be 1.18 ± 0.15%, the activity at 10 µg/mL is 0.0228 ± 0.03% and the log reduction at 0.1 µg/mL stood at 0.09 ± 0.01. In the experiment on HSV-1 [1], the log reduction at 1 µg/mL is 1.9 ± 0.2 and the log reduction at 10 µg/mL came out at 3.6 ± 0.5. For the same compound, the “increase of mitochondrial membrane potential” value in experiment [2] (compound 10 µM, 6-OHDA 120 µM, TMRM) is listed as 8–12%. Further, in the experiment on HSV-1 [3], the IC50 (usually the concentration needed to halve the response being measured) was 6.7 µg/mL and 27.4 µM. The SI in the experiment on HSV-1 [3] (ratio of CC50 to IC50, virucidal scheme) turned out to be 37.3 ± 5.2. Besides, the “effect on viability of 6-OHDA-treated Neuro-2a cells (in words)” value (“effect on viability” for short) in experiment [4] (compounds at 10, 1, 0.1 µM) is “weak effect on cell viability”.
For `COc1ccc(-c2coc3cc(O)ccc3c2=O)cc1` [Compound 8, formononetin], the “virucidal activity against HSV-1 by RT-PCR (in words)” value with HSV-1 [1] is on record as “did not demonstrate virucidal activity”. The “virucidal activity against HSV-1 (in words)” value in the experiment with HSV-1 [3] is recorded as “did not show virucidal activity”. The “effect on viability” value in experiment [4] (compound 1 µM) is on record as “increased the viability”; in experiment [4] (compounds at 10, 1, 0.1 µM), “weak effect on cell viability”.
Take `COc1c(O)cc2occ(-c3ccc(O)cc3)c(=O)c2c1O` [Compound 5, tectorigenin]: the “virucidal activity against HSV-1 by RT-PCR (in words)” value in the experiment on HSV-1 [1] is “did not demonstrate virucidal activity”. Moreover, the “virucidal activity against HSV-1 (in words)” value in the experiment on HSV-1 [3] was “did not show virucidal activity”. Also, the “effect on viability” value in experiment [4] (compounds at 10, 1, 0.1 µM) is “weak effect on cell viability”.
With `COc1ccc(C2(O)COc3cc(O)ccc3C2=O)c(O)c1` (racemic) [Compound 12, (±)-3-hydroxyvestitone], the “virucidal activity against HSV-1 by RT-PCR (in words)” value in the experiment with HSV-1 [1] was “did not demonstrate virucidal activity”. For the same compound, the “virucidal activity against HSV-1 (in words)” value in the experiment with HSV-1 [3] is on record as “did not show virucidal activity”. For the same compound, the “effect on viability” value in experiment [4] (compound 1 µM) is given as “increased the viability”.
With `NCCc1cc(O)c(O)cc1O` [Compound 6-OHDA, 6-hydroxydopamine, reference compound], in experiment [5], the Dead stood at 1.11 ± 0.37%; the Early apop. was 42.62% and 42.62 ± 2.3%; the “Late apop./Dead” value was 12.15% and 12.15 ± 1.34%; the Live is 44.14 ± 1.34%. Further, in experiment [2] (6-OHDA alone), the “decrease of TMRM fluorescence after treatment of Neuro-2a cells with 6-OHDA” value was found to be 14%.
Consider `O=c1c(-c2ccc(O)cc2)coc2cc(O)cc(O)c12` [Compound 2, genistein], for which, in the experiment on HSV-1 [1] (0.1 µg/mL), the Ct was 18.1 ± 2.2 and the “−ΔCt” value was found to be 0. In addition, in the experiment on HSV-1 [1] (1 µg/mL), the Ct came to 18.4 ± 2.4 and the “−ΔCt” value is on record as −0.30 ± 0.03. Moreover, in the experiment with HSV-1 [1] (10 µg/mL), the “anti-HSV-1 activity by RT-PCR (in words)” value is “moderate anti-HSV-1 activity”, the Ct worked out at 22.4 ± 2.4 and the “−ΔCt” value is −4.3 ± 0.5. Besides, in the experiment with HSV-1 [1], the activity at 0.1 µg/mL stood at 100%, the activity at 1 µg/mL was 81.2 ± 11%, the activity at 10 µg/mL was found to be 5.08 ± 0.61% and the log reduction at 0.1 µg/mL amounted to 0. For the same compound, in the experiment with HSV-1 [1], the log reduction at 1 µg/mL came to 0.09 ± 0.01 and the log reduction at 10 µg/mL was 1.3 ± 0.2. The IC50 in the experiment with HSV-1 [3] was 16.7 µg/mL and 61.9 µM.

These data come from article PMC11050087, “Polyphenols from Maackia amurensis Heartwood Protect Neuronal Cells from Oxidative Stress and Prevent Herpetic Infection” (International Journal of Molecular Sciences, 2024).
